In series [1] the target is T1, Protein arginine N-methyltransferase 3 (Homo sapiens, UniProt O60678). In words: Displacement of 3H-SAM from human PRMT3 in presence of substrate by SPA assay. For orientation: Loss of bound radioactivity is the signal in a displacement assay; it reports binding, not function.
Target sequence in this assay (O60678 whole entry): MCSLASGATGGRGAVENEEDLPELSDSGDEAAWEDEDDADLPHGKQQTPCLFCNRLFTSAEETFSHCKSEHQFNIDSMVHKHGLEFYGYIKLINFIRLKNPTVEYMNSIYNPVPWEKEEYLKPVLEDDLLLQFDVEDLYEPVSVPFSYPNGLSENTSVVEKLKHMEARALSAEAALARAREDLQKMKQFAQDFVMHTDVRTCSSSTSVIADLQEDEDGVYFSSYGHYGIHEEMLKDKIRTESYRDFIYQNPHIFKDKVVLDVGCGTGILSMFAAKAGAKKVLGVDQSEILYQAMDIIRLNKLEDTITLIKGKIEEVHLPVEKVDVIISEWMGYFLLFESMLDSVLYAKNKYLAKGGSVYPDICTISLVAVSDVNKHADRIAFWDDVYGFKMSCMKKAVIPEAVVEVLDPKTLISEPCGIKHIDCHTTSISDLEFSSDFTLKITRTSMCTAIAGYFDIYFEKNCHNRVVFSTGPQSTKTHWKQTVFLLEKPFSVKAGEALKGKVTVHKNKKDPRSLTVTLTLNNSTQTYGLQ
Series [2] has as its target T2, Histone-arginine methyltransferase CARM1 (Homo sapiens, UniProt Q86X55).
T2 sequence (Q86X55 whole entry): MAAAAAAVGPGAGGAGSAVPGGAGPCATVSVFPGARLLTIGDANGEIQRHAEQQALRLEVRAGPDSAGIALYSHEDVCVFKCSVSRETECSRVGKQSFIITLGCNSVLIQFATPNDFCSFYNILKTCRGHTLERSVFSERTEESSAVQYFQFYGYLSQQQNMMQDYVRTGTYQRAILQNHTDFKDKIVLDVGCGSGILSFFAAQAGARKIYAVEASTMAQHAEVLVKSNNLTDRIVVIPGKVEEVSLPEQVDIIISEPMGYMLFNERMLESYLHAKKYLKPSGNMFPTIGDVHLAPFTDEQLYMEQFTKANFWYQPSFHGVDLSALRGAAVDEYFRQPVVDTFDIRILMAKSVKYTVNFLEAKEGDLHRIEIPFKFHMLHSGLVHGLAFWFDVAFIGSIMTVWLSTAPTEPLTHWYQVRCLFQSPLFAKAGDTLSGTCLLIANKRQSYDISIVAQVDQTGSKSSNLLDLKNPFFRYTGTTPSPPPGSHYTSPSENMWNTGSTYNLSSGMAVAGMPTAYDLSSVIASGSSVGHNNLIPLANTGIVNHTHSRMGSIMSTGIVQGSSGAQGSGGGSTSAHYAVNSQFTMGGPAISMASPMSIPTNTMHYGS
The experiment in a line: Displacement of 3H-SAM from human PRMT4 in presence of substrate by SPA assay.

The target in series [3] is T3, Protein arginine N-methyltransferase 6 (Homo sapiens, UniProt Q96LA8). In words: Displacement of 3H-SAM from human PRMT6 in presence of substrate by SPA assay.
Target sequence in this assay (Q96LA8 whole entry): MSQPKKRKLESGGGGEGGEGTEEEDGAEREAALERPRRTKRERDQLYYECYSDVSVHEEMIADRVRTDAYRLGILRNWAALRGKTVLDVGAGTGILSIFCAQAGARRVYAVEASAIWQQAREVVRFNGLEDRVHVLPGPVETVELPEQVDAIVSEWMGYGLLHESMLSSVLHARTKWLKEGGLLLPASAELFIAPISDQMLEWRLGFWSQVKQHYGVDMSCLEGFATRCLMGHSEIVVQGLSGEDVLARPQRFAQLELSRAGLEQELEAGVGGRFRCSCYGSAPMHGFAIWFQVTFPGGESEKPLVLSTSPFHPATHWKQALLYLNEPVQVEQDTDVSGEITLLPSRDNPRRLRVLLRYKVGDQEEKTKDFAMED
For series [4], the target named is T4, Protein arginine N-methyltransferase 8 (Homo sapiens, UniProt Q9NR22). The experiment in a line: Displacement of 3H-SAM from human PRMT8 in presence of substrate by SPA assay.
Target sequence in this assay (Q9NR22 whole entry): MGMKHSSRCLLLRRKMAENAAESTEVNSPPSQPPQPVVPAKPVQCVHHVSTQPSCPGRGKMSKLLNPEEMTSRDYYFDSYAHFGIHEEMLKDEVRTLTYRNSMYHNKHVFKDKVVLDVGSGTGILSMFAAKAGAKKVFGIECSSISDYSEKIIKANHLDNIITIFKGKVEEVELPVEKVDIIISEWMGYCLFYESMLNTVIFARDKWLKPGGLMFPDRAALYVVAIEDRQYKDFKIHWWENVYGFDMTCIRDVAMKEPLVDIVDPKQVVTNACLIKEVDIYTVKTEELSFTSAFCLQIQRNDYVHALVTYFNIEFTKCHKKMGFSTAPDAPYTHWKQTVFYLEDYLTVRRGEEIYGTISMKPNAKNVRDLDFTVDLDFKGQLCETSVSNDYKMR
For series [5], the target named is T1, Protein arginine N-methyltransferase 3. The experiment in a line: Displacement of 3H-SAM from human PRMT3 at 10 uM in presence of substrate by SPA assay.
Target sequence in this assay (O60678 2-531 limits assumed): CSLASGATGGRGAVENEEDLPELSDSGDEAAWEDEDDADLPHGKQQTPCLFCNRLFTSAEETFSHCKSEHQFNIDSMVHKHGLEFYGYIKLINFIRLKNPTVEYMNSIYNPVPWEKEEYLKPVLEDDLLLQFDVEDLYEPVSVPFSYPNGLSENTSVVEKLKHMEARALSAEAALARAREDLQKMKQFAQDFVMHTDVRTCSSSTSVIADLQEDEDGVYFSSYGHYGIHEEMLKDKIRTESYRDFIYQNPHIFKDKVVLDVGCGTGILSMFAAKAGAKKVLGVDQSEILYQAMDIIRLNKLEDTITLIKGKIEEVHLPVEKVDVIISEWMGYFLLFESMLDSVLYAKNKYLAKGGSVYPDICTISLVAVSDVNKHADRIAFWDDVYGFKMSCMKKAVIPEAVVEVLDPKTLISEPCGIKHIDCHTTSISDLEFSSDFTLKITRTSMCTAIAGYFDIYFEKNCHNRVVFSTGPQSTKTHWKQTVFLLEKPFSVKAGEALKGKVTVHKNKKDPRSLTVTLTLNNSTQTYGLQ
The target of series [6] is T5, Histone-arginine methyltransferase CARM1 (Homo sapiens) (UniProt Q86X55).
T5 sequence (whole entry): T2 sequence (Q86X55 whole entry)
In words: Displacement of 3H-SAM from human PRMT4 at 10 uM in presence of substrate by SPA assay.

The target of series [7] is Protein arginine N-methyltransferase 5 (Homo sapiens) (UniProt O14744). The experiment in a line: Displacement of 3H-SAM from human PRMT5 at 10 uM in presence of substrate by SPA assay.
Protein arginine N-methyltransferase 5 (Homo sapiens), sequence (O14744 whole entry): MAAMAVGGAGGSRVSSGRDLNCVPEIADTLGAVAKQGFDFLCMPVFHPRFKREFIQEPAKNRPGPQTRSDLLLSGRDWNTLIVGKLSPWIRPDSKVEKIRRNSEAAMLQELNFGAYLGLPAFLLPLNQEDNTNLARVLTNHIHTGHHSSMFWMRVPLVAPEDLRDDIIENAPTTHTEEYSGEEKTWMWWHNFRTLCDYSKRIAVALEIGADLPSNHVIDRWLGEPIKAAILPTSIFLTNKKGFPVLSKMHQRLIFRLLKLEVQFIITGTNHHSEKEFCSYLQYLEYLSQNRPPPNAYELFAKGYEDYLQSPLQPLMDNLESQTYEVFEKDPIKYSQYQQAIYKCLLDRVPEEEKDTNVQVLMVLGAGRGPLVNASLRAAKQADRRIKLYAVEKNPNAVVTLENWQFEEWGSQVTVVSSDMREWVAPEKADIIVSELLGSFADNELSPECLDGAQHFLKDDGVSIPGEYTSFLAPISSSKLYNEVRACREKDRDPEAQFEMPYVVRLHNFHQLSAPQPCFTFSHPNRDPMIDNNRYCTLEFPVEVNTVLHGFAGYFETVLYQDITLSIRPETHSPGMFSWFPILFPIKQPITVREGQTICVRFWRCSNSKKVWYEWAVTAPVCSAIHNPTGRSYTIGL
Series [8] has as its target T3, Protein arginine N-methyltransferase 6. The experiment in a line: Displacement of 3H-SAM from human PRMT6 at 10 uM in presence of substrate by SPA assay.
Target sequence in this assay (Q96LA8 whole entry, looked up): as the sequence (Q96LA8 whole entry) above
Series [9] concerns the target T6, Protein arginine N-methyltransferase 7 (Homo sapiens) (UniProt Q9NVM4).
T6 sequence (whole entry): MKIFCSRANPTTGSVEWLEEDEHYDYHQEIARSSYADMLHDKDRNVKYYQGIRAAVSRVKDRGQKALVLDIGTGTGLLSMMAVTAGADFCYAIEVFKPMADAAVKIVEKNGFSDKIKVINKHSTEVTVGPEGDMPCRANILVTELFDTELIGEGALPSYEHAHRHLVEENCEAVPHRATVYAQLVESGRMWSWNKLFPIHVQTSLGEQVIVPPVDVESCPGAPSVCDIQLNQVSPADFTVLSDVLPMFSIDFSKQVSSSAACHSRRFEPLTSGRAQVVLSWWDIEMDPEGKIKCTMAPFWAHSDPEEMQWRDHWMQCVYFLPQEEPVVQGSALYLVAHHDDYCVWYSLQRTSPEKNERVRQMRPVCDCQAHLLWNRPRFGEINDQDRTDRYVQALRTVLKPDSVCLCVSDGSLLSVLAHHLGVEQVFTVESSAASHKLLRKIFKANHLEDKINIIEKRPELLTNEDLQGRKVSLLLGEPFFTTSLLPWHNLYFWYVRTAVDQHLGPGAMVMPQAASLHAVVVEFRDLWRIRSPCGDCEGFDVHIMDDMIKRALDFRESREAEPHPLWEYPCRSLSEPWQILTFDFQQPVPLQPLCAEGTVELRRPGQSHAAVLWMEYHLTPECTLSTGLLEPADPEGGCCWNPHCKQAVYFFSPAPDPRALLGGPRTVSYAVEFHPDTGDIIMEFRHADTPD
In words: Displacement of 3H-SAM from human PRMT7 at 10 uM in presence of substrate by SPA assay.

In series [10] the target is T4, Protein arginine N-methyltransferase 8. The experiment in a line: Displacement of 3H-SAM from human PRMT8 at 10 uM in presence of substrate by SPA assay.
Target sequence in this assay (Q9NR22 2-394 limits assumed): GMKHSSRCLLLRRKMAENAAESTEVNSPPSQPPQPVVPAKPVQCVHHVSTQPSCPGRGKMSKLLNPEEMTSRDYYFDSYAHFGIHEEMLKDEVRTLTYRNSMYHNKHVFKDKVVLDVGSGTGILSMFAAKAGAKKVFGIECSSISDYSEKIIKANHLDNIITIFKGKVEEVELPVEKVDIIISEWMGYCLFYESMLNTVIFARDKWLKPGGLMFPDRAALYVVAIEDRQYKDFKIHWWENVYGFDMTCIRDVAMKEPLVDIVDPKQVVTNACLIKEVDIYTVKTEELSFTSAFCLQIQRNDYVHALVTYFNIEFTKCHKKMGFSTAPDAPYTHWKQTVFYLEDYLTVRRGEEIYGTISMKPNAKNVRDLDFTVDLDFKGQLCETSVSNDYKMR
In series [11] the target is T7, Protein arginine N-methyltransferase 9 (Homo sapiens) (UniProt Q6P2P2).
T7 sequence (whole entry): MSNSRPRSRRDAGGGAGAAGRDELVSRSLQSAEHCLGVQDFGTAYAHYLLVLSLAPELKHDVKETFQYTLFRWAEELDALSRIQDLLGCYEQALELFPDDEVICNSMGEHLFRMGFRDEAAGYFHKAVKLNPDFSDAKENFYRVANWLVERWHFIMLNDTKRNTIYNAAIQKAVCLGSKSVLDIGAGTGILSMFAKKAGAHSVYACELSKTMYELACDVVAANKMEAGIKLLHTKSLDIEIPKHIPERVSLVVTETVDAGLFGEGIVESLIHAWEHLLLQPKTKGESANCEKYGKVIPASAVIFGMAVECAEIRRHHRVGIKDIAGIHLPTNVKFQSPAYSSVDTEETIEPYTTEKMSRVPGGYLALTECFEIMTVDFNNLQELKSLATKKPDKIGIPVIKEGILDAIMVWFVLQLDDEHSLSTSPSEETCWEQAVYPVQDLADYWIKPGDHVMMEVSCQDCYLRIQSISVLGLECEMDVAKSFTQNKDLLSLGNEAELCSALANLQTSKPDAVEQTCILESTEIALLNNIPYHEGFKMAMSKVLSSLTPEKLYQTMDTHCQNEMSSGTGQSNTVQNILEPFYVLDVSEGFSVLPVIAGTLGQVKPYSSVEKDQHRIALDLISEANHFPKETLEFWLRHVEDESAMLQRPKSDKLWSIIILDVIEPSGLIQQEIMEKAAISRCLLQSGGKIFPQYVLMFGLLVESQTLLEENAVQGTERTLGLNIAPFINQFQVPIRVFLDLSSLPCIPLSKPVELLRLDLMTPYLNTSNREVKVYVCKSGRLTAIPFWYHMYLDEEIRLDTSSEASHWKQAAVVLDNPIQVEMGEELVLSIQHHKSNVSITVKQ
In words: Displacement of 3H-SAM from human PRMT9 at 10 uM in presence of substrate by SPA assay.

Series [12] is described as follows: Aqueous solubility of compound at pH 7.4 incubated for 24 hrs by HPLC-UV spectroscopy. It is filed as physicochemical. As to conditions: aqueous medium.
The nature of series [13]: Metabolic stability in human liver microsomes assessed as half life preincubated for 10 mins followed by NADPH addition measured for 60 mins by LC-MS/MS analysis. It is filed as ADME, Microsome. The conditions noted are these: time 70 min.

Usually pIC50 stands for −log10 of the IC50, conventionally taken in molar units. In general, solubility refers to how much of the substance goes into solution per volume. A low value points to a poorly soluble substance. As usually defined, the half-life is the time needed for the level to fall by half in the phase considered.

pIC50: −log10 of the molar value. Converted amounts (≈) assume the structure as drawn. The source made the active and inactive calls.

In the case of `CNCCN1CCC(NC(=O)c2ccc3c(Nc4ccc(CN)cc4)ncnc3c2)C1` (racemic), the pIC50 in series [1] was 2.51; in [2], 4.10; in series [3], 3.15; in series [4], 2.61. In addition, the inhibition result in series [5], in [6], in [7], in series [8], in series [9] and in series [10] was “Active” throughout. In addition, the inhibition entry in [11] was “Active”. Further, the concentration in solution in [12] (solubility at 24 h) was 187 µg/mL (≈ 446 µM). Besides, the half-life in series [13] was 10.9 min.
Turning to `CNCCN1CC[C@@H](NC(=O)c2ccc3c(Nc4ccc(CN)cc4)ncnc3c2)C1`, the pIC50 in [1] was 2.45; in series [2] it was 4.43; in series [3], 3.60; in series [4], 3.10. In addition, the inhibition result in [5], in series [6], in series [7], in series [8], in series [9] and in series [10] was “Active” each time. The inhibition entry in series [11] is “Active”. The amount in solution in series [12] (solubility at 24 h) came to 210 µg/mL (≈ 501 µM). The half-life in [13] was found to be 23 min.
On to `CNCCN1CC[C@H](NC(=O)c2ccc3c(Nc4ccc(CN)cc4)ncnc3c2)C1`, for which the pIC50 is 2.86 in series [1], 4.04 in [2], 3.36 in series [3] and 3.08 in [4]. The inhibition entry in series [5], in series [6], in series [7], in series [8], in series [9] and in series [10] was “Active” throughout. Besides, the inhibition result in series [11] is “Active”.

Source of the values: ChEMBL document CHEMBL5625232, “Development of selective class I protein arginine methyltransferase inhibitors through fragment-based drug design approach” (Eur J Med Chem, 2023).
